How the values were obtained:
[1] = molecular target: Adenosine receptor A2a (Homo sapiens, UniProt P29274); test: Displacement of L0058RED from adenosine A2A receptor (unknown origin) in Tag-lite labeled cells measured after 45 mins by fluorescence based HTRF assay; assay type: cell-based
[2] = molecular target: T1, Adenosine receptor A2b (Homo sapiens, UniProt P29275); test: Inhibition of human adenosine A2B receptor expressed in HEK293 cells assessed as reduction in NECA-stimulated cAMP accumulation preincubated for 30 mins followed by NECA stimulation for 60 mins by FRET assay; assay type: functional, cell-based
T1 sequence (P29275 whole entry): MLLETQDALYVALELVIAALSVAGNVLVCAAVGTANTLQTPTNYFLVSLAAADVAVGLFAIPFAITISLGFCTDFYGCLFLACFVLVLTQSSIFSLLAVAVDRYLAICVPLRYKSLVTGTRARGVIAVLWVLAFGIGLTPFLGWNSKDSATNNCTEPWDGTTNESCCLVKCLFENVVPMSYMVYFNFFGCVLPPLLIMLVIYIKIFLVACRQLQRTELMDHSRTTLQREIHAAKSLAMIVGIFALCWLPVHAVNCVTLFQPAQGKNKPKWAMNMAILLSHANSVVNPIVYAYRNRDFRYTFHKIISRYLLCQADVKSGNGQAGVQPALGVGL

Chain of Adenosine receptor A2a (P29274 whole entry): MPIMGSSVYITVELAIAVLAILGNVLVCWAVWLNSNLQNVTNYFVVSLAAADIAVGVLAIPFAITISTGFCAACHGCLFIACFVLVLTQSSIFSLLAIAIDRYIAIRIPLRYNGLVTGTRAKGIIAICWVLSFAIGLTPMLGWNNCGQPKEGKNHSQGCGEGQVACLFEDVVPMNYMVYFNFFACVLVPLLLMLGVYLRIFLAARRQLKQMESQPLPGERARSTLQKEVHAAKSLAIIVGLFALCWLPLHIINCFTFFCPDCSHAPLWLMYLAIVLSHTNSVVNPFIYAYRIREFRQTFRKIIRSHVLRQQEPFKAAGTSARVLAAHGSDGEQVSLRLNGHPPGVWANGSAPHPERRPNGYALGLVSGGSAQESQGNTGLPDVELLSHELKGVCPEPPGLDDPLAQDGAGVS

Row | Ki [1] [µM] | EC50 [2] [µM] | Structure (SMILES)
1 | ≤ 0.01 | ≤ 0.01 | Cc1ncoc1-c1c(-c2cccc(C#N)c2)nc(N)c2nc(C(N)c3c(F)cccc3F)nn12 (configuration not stated)
2 | ≤ 0.01 | ≤ 0.01 | N#Cc1cccc(-c2nc(N)n3nc(C(O)c4c(F)cccc4F)nc3c2C#N)c1F (configuration not stated)
3 | ≤ 0.01 | ≤ 0.01 | N#Cc1cccc(-c2nc(N)n3nc(Cc4cccnc4)nc3c2-c2ccncn2)c1
4 | ≤ 0.01 | ≤ 0.01 | N#Cc1cccc(-c2cc3nc(C(O)c4c(F)cccc4F)nn3c(N)n2)c1F (configuration not stated)
5 | ≤ 0.01 | ≤ 0.01 | Cn1nccc1-c1c(-c2cccc(C#N)c2F)nc(N)c2nn(Cc3ccccn3)nc12
6 | ≤ 0.01 | ≤ 0.01 | N#Cc1cccc(-c2nc(N)c3nn(Cc4ncccc4F)nc3c2-c2ccncc2)c1

Reference: ChEMBL document CHEMBL4825746, “Combination Therapy Comprising A2A/A2B and PD-1/PD-L1 Inhibitors for Treating Cancer” (ACS Med Chem Lett, 2021)
